{"source": "patent US4138492A", "about": "“Aromatic amides of heterocyclic compounds and therapeutic compositions containing same” (priority 1974, dated 1979)", "key": {"[1]": {"system": "spontaneous motor activity", "assay": "Spontaneous motor activity in the mouse"}, "autonomic nervous system": {"system": "autonomic nervous system", "assay": "Effect on the autonomic nervous system", "settings": "in vivo"}, "[2]": {"system": "convulsions induced by leptazol", "assay": "Leptazol-induced convulsions in the mouse", "format": "in vivo"}, "[3]": {"system": "electrically induced convulsions", "assay": "Electrically induced convulsions in mice", "format": "in vivo", "settings": "mouse, in vivo"}, "[4]": {"assay": "Local anaesthetic activity in mice", "format": "in vivo", "settings": "compared with metoclopramide or procaine"}, "[5]": {"assay": "Therapeutic effect and side effects in humans", "format": "in vivo", "settings": "suitable doses", "experimental": "They may be used in doses of from 0.1 to 1000 mg per day for the treatment of nausea and vomiting due to gastrointestinal disorders, congestive heart failure, post operative conditions, etc., other gastrointestinal tract disorders such as dyspepsia, flatulence, bile regurgitations, hiatus hernia, peptic ulcer, reflux aerophagitis, gastritis, duodenitis and cholethiasis, and as an adjunt to radiography of the gastrointestinal tract and for overcoming gastrointestinal stasis for diagnostic or therapeutic purposes and a variety of conditions affecting the central nervous system such as acute and chronic psychoses, maniacal psychosis, schizophrenias, serious disturbances of behavior and non-melancholic depressive state and migraine.\nA number of the instant compounds, particularly the hydrogen chloride, malate and methanesulfonate salts of Clebopride have been extensively tested in humans to determine maximum dosages and the therapeutic effects of the compounds. These compounds have been administered to humans orally and parenterally.\nDosages of between 0.1 and 30 mg per day have been shown useful depending upon the length of treatment and therapeutic effect desired."}, "[6]": {"system": "apomorphine-induced gnawing", "assay": "Antiapomorphine activity (apomorphine-induced gnawing) in the rat", "format": "in vivo", "from_the_text": "A number of the compounds of the present invention were screened in parallel with metoclopramide for potential anti-emetic effects against apomorphine-induced gnawing in the rat and as local anaesthetics on the rat sciatic nerve (Table I).\n*Antiapomorphine activity in rat scored as […]"}, "[7]": {"assay": "Metabolism and pharmacokinetics in the rat", "format": "in vivo"}, "[8]": {"assay": "Metabolism and pharmacokinetics in the rabbit", "format": "in vivo"}, "[9]": {"system": "apomorphine-induced vomiting", "assay": "Apomorphine-induced vomiting in the dog", "format": "in vivo"}, "inflammation": {"system": "inflammation", "assay": "Anti-inflammatory activity", "settings": "in vivo"}, "parasympathetic system": {"system": "parasympathetic system", "assay": "Parasympatholytic activity", "settings": "in vivo"}, "[10]": {"system": "cardiovascular and respiratory systems", "assay": "Cardiovascular and respiratory effects in cats anaesthetized with chloralose", "format": "in vivo", "from_the_text": "HCl-Clebopride salt has weak effects on the cardiovascular and respiratory systems."}, "gastric emptying": {"system": "gastric emptying", "assay": "Decrease of gastric emptying time in rats", "format": "in vivo, rat", "settings": "compared with metoclopramide"}, "incoordination": {"system": "incoordination", "assay": "Incoordination on accelerating rota-rod in the mouse"}, "[11]": {"settings": "cats, slow intravenous infusion 1 mg/kg/min. to total 10 mg/kg"}}, "data": [{"smiles": "COc1cc(N)c(Cl)cc1C(=O)NC1CCN(Cc2ccccc2)CC1", "note": "[Compound 2, N-[4'-(1'-benzyl)-piperidyl]-2-methoxy-4-amino-5-chloro-benzamide]", "values": [{"measurement": "spontaneous motor activity", "setting": "[1]", "value": "inhibit spontaneous motor activity"}, {"measurement": "effect on the autonomic nervous system", "setting": "autonomic nervous system", "value": "does not have an appreciable effect"}, {"measurement": "inhibition of clonic seizures induced by leptazol", "setting": "[2]", "value": "apparently not clonic seizures"}, {"measurement": "inhibition of tonic convulsions (antileptazol)", "setting": "[2]", "value": "inhibits tonic convulsions"}, {"measurement": "anti-convulsant activity", "setting": "[3]", "value": "has anti-convulsant activity"}, {"measurement": "local anaesthetic potency", "setting": "[4]", "value": "somewhat greater than that of either metoclopramide or procaine"}, {"measurement": "side effects", "setting": "[5]", "value": "virtually free of side effects"}, {"measurement": "ED50", "setting": "[6]; Rattus norvegicus, po, per os, Table I, read-out: ED50 Values", "value": "~3", "unit": "mg/kg"}, {"measurement": "activity as an anti-emetic", "setting": "[6]; compared with metoclopramide, from Table I", "value": "more active as an anti-emetic"}, {"measurement": "N-Debenzylation", "setting": "[7]", "value": "major metabolic reaction"}, {"measurement": "cleavage of the amide bond", "setting": "[7]", "value": "does not appear to be a major matabolic reaction"}, {"measurement": "extent of metabolism", "setting": "[7]", "value": "extensively metabolized"}, {"measurement": "unchanged drug excreted in the urine", "setting": "[7]", "value": "Only very little"}, {"measurement": "N-Debenzylation", "setting": "[8]", "value": "major metabolic reaction"}, {"measurement": "cleavage of the amide bond", "setting": "[8]", "value": "does not appear to be a major matabolic reaction"}, {"measurement": "conjugation with glucuronic acid and/or sulphate", "setting": "[8]", "value": "occurs at a large extent in the rabbit"}, {"measurement": "extent of metabolism", "setting": "[8]", "value": "extensively metabolized"}, {"measurement": "unchanged drug excreted in the urine", "setting": "[8]", "value": "Only very little"}, {"measurement": "activity against apomorphine-induced vomiting", "setting": "[9]", "value": "high activity"}, {"measurement": "ED50", "setting": "[9]; Canis lupus familiaris, po, per os, Table II, read-out: ED50 (95% confidence limits), apomorphine induced vomiting", "value": 0.0435, "unit": "mg/kg"}, {"measurement": "potency relative to metoclopramide", "setting": "[9]; oral route", "value": "approximately 8 times"}, {"measurement": "anti-inflammatory activity", "setting": "inflammation", "value": "weak anti-inflammatory activity"}, {"measurement": "parasympatholytic activity", "setting": "parasympathetic system", "value": "no appreciable parasympatholytic activity"}, {"measurement": "blood pressure", "setting": "[10]; [11]", "value": "slight fall"}, {"measurement": "heart rate", "setting": "[10]; [11]", "value": "slight fall"}, {"measurement": "respiratory movements", "setting": "[10]; [11]", "value": "slowing of respiratory movements"}, {"measurement": "effects on the cardiovascular and respiratory systems", "setting": "[10]; in vivo", "value": "weak effects"}, {"measurement": "ability to decrease gastric emptying time, potency", "setting": "gastric emptying", "value": "potency similar to that of metoclopramide"}, {"measurement": "incoordination", "setting": "incoordination", "value": "cause incoordination"}]}]}
